Test results reported in ChEMBL document CHEMBL4354792, “Emerging modes-of-action in drug discovery” (Medchemcomm, 2019).

Assays:
[1] = system: Ribosome; experiment: Inhibition of 80s ribosome in CHOK1 cells assessed as reduction in PL-tagged PCSK9 expression incubated for over night by EFC kit method; type: cell-based; conditions: Cricetulus griseus, CHO-K1
[2] = Binding affinity to MMTV-PyMT mouse MALAT1 long non-coding RNA by FRET assay

| IC50 [1] [µM] | IC50 [2] [µM] | Compound |
| --- | --- | --- |
| 4.8 | – | COc1ccc(CCC(=O)N(c2nccc3ccccc23)[C@@H]2CCCNC2)cc1 |
| – | 1.3 to 2.5 | N=C(NC1CCN(Cc2ccccc2)CC1)c1ccc(-c2ccc(-c3ccc(C(=N)NC4CCN(Cc5ccccc5)CC4)cc3)o2)cc1 |
